The text below walks through data of ChEMBL document CHEMBL4765469, “2-((3,5-Dinitrobenzyl)thio)quinazolinones: Potent Antimycobacterial Agents Activated by Deazaflavin (F)-Dependent Nitroreductase (Ddn)” (J Med Chem, 2021).

SMILES strings stand for the structures. Converted amounts (≈) assume the structure as drawn. The source made the active and inactive calls. The rule behind the calls is not given here.

The subject of assay [1] is Mycobacterium tuberculosis. Nature of the assay: Antitubercular activity against Mycobacterium tuberculosis resistant mutants generated by plating on 7H11/0ADC agar plates in presence of 3.75 to 15 uM 2-((3,5-Dinitrobenzyl)thio)quinazolin-4(3H)-one followed by sensitivity testing. It is filed as functional, organism-based.
The test system of assay [2] is Mycobacterium tuberculosis. Nature of the assay: Antitubercular activity against Mycobacterium tuberculosis 5A1 with fbiC mutant deficient in cofactor F420 biosynthesis assessed as inhibition of all visible growth grown under 7H9/ glucose liquid culture incubated for 7 to 14 days. It is filed as functional. Particulars: time 7-14 day.
Assay [3] relates to Mycobacterium tuberculosis. In words: Antitubercular activity against Mycobacterium tuberculosis T3 with fgd mutant deficient in F420 reduction assessed as inhibition of all visible growth grown under 7H9/ glucose liquid culture incubated for 7 to 14 days. It is filed as functional. To be noted: time 7-14 day.
The test system of assay [4] is Mycobacterium tuberculosis. In words: Antitubercular activity against Mycobacterium tuberculosis T2 expressing nitroreductase rv3547 A76E mutant assessed as inhibition of all visible growth grown under 7H9/ glucose liquid culture incubated for 7 to 14 days. It is filed as functional. Particulars: time 7-14 day.
The nature of assay [5]: Ratio of MIC for antitubercular activity against Mycobacterium tuberculosis resistant mutants generated by plating on 7H11/0ADC agar plates in presence of 3.75 to 15 uM 2-((3,5-Dinitrobenzyl)thio)quinazolin-4(3H)-one to MIC for antitubercular activity against wild type Mycobacterium tuberculosis H37Rv ATCC 27294. It is filed as functional.

For the compound `O=[N+]([O-])c1cn2c(n1)OC[C@@H](OCc1ccc(OC(F)(F)F)cc1)C2`, the result in assay [1] was inactive.

As to `Cc1ccc2nc(SCc3cc([N+](=O)[O-])cc([N+](=O)[O-])c3)[nH]c(=O)c2c1`, the “MIC>99” value in assay [2], in assay [3] and in assay [4] was greater than 50 µM in each case.

Take `NNC(=O)c1ccncc1`: the outcome in assay [1] was Active.

On to `CO[C@H]1/C=C/O[C@@]2(C)Oc3c(C)c(O)c4c(O)c(c(/C=N/N5CCN(C)CC5)c(O)c4c3C2=O)NC(=O)/C(C)=C\C=C\[C@H](C)[C@H](O)[C@@H](C)[C@@H](O)[C@@H](C)[C@H](OC(C)=O)[C@@H]1C`, for which the result in assay [1] was Active.

On to `C[C@]1(COc2ccc(N3CCC(Oc4ccc(OC(F)(F)F)cc4)CC3)cc2)Cn2cc([N+](=O)[O-])nc2O1`, for which the result in assay [1] was inactive.

For `O=c1[nH]c(SCc2cc([N+](=O)[O-])cc([N+](=O)[O-])c2)nc2ccc(N3CCOCC3)cc12`, the results for the “MIC>99” value in assay [2], in assay [3] and in assay [4] were “>=50 uM”, “>=50 uM” and 19 µM (≈ 8.43 µg/mL), respectively.

`CN1CCN(c2ccc3nc(SCc4cc([N+](=O)[O-])cc([N+](=O)[O-])c4)[nH]c(=O)c3c2)CC1`: the results for the “MIC>99” value in assay [2], in assay [3] and in assay [4] were 37 µM (≈ 16.9 µg/mL), 25 µM (≈ 11.4 µg/mL) and 37 µM (≈ 16.9 µg/mL), respectively.

As to `O=c1[nH]c(SCc2cc([N+](=O)[O-])cc([N+](=O)[O-])c2)nc2ccc(F)cc12`, the “MIC>99” value in assay [2] was greater than 50 µM; in assay [3], “>=50 uM”; in assay [4] it was “>=50 uM”.

On to `O=c1[nH]c(SCc2cc([N+](=O)[O-])cc([N+](=O)[O-])c2)nc2cccnc12`, for which the “MIC>99” value came to 37 µM (≈ 13.3 µg/mL) in assay [2], 37 µM (≈ 13.3 µg/mL) in assay [3] and 50 µM (≈ 18 µg/mL) in assay [4].

Consider `O=c1[nH]c(SCc2cc([N+](=O)[O-])cc([N+](=O)[O-])c2)nc2ccc(Br)cc12`, for which the “MIC>99” value in assay [2], in assay [3] and in assay [4] was greater than 50 µM in each case.

For `O=c1[nH]c(SCc2cc([N+](=O)[O-])cc([N+](=O)[O-])c2)nc2ccccc12`, the Ratio in assay [5] is greater than 40. The “MIC>99” value in assay [2] was greater than 50 µM; in assay [3], 37 µM (≈ 13.3 µg/mL); in assay [4] it was 37 µM (≈ 13.3 µg/mL).
